In brackets after ≈: the same amount, converted by molar mass.
Key:
[1] = system: Hepatitis C virus; assay: Antiviral activity against HCV 1b in Huh-7/2209-23 cells by replicon assay; assay type: functional, organism-based, Hepacivirus hominis; settings: genotype 1b
[2] = system: Hepatitis C virus; assay: Inhibition of HCV 1b NS5B polymerase; parameters: species or system Hepatitis C virus subtype 1b
[3] = Aqueous solubility of compound; assay type: physicochemical; settings: buffer

IC50 [1] [nM]	IC50 [2] [nM]	solubility [3] [µg/mL]	Structure (SMILES)
150	550	3 (≈ 6.05 µM)	O=S1(=O)N=C(c2nc(Cc3ccc(F)cc3)c3ccccc3c2O)c2cccc(-c3cccnc3)c21
440		16 (≈ 38.2 µM)	O=S1(=O)N=C(c2nc(Cc3ccc(F)cc3)c3ccccc3c2O)c2ccccc21
780	720		O=S1(=O)N=C(c2nc(Cc3ccc(F)cc3)c3ccccc3c2O)c2cccc(-c3cn[nH]c3)c21
	51000		CC(C)CCc1nc(C2=NS(=O)(=O)c3ccccc3N2)c(O)c2ccccc12
75	410	7 (≈ 13.7 µM)	O=c1ccc(-c2cccc3c2S(=O)(=O)N=C3c2nc(Cc3ccc(F)cc3)c3ccccc3c2O)c[nH]1

Continued, molecule first:

Structure (SMILES)	IC50 [1] [nM]	IC50 [2] [nM]	solubility [3] [µg/mL]
O=c1cccc(-c2cccc3c2S(=O)(=O)N=C3c2nc(Cc3ccc(F)cc3)c3ccccc3c2O)[nH]1	400	730	6 (≈ 11.7 µM)
CC(=O)Nc1cccc(-c2cccc3c2S(=O)(=O)N=C3c2nc(Cc3ccc(F)cc3)c3ccccc3c2O)c1	940	530	17 (≈ 30.8 µM)
COc1cccc2c1S(=O)(=O)N=C2c1nc(Cc2ccc(F)cc2)c2ccccc2c1O	760	610	40 (≈ 89.2 µM)
O=S1(=O)N=C(c2nc(Cc3ccc(F)cc3)c3ccccc3c2O)c2cccc(Cl)c21	430	580	2 (≈ 4.42 µM)
O=S1(=O)N=C(c2nc(Cc3ccc(F)cc3)c3ccccc3c2O)c2cccc(-c3cncnc3)c21	380	1800	9 (≈ 18.1 µM)
O=S1(=O)N=C(c2nc(Cc3ccc(F)cc3)c3ccccc3c2O)c2cccc(-c3cccc(O)c3)c21	1100	350	3 (≈ 5.88 µM)
O=S1(=O)N=C(c2nc(Cc3ccc(F)cc3)c3ccccc3c2O)c2cccc(-c3ccccc3)c21	800	3900	41 (≈ 82.9 µM)
O=S1(=O)N=C(c2nc(Cc3ccccc3)c3ccccc3c2O)Nc2ccccc21		47000	
O=S1(=O)N=C(c2nc(CCC3CC3)c3ccccc3c2O)c2ccccc21	2700	1000	10 (≈ 26.4 µM)
CC(C)CCc1nc(C2=NS(=O)(=O)c3ccccc32)c(O)c2ccccc12		4500	

— ChEMBL document CHEMBL1154535, “3-Hydroxyisoquinolines as inhibitors of HCV NS5b RNA-dependent RNA polymerase” (Bioorg Med Chem Lett, 2009)
